According to PubChem BioAssay (NCI):
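The compound was tested at five concentrations on cells cultured in 96-well plates, with a 48-hour exposure period. GI50 marks 50% less growth. TGI: total growth inhibition.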

Key:
Test in all cases: inhibition of tumour cell growth, NCI panel, 48 h
COLO 205 colon = tested on: COLO 205 colon
NCI-H23 lung = tested on: NCI-H23 lung
LOX IMVI melanoma = tested on: LOX IMVI melanoma
U251 CNS = tested on: U251 CNS
CCRF-CEM leukemia = tested on: CCRF-CEM leukemia
SK-MEL-28 melanoma = tested on: SK-MEL-28 melanoma
SF-539 CNS = tested on: SF-539 CNS
UACC-257 melanoma = tested on: UACC-257 melanoma
HCT-15 colon = tested on: HCT-15 colon
HL-60(TB) leukemia = tested on: HL-60(TB) leukemia

SMILES | TGI (COLO 205 colon) | TGI (NCI-H23 lung) | TGI (LOX IMVI melanoma) | TGI (U251 CNS) | TGI (CCRF-CEM leukemia) | TGI (SK-MEL-28 melanoma) | TGI (SF-539 CNS) | TGI (UACC-257 melanoma) | TGI (HCT-15 colon) | GI50 (COLO 205 colon) | GI50 (HL-60(TB) leukemia) | TGI (HL-60(TB) leukemia) | GI50 (NCI-H23 lung) | GI50 (U251 CNS) | GI50 (CCRF-CEM leukemia) | GI50 (SK-MEL-28 melanoma) | GI50 (UACC-257 melanoma) | GI50 (HCT-15 colon) | GI50 (SF-539 CNS) | GI50 (LOX IMVI melanoma)
O=c1c2cccnc2ncn1CCCN1CCOCC1 | > 100 µM | > 100 µM | > 100 µM | > 100 µM | > 100 µM | > 100 µM | > 100 µM | – | – | – | – | – | – | – | – | – | – | – | – | –
Cc1cccc(N2C(=O)C(=O)C(c3nc4ccccc4s3)C(=O)C2=O)c1C | > 100 µM | > 100 µM | > 100 µM | > 100 µM | > 100 µM | > 100 µM | > 100 µM | > 100 µM | > 100 µM | – | – | – | – | – | – | – | – | – | – | –
C=C1C(=O)O[C@H]2[C@H]1CC(=O)/C(C)=C\CC[C@@]1(C)O[C@@H]21 | 3.54 µg/mL | 8.18 µg/mL | – | 10.9 µg/mL | 1.4 µg/mL | 6.11 µg/mL | 7.16 µg/mL | 6.99 µg/mL | 3.68 µg/mL | 0.755 µg/mL | 0.264 µg/mL | 4.19 µg/mL | 3.94 µg/mL | 5.32 µg/mL | 0.443 µg/mL | 1.51 µg/mL | 3.39 µg/mL | 0.83 µg/mL | 2.64 µg/mL | –
C=C1C(=O)O[C@H]2[C@H]1CC/C(COC(=O)C(=O)c1cn(C)c3ccc(OC)cc13)=C\CC[C@@]1(C)O[C@@H]21 | – | 12.4 µM | 2.62 µM | 10.1 µM | 22.4 µM | 8.49 µM | 8.94 µM | 9.73 µM | 3.23 µM | – | 3.03 µM | 8.89 µM | 6.44 µM | 6.58 µM | 2.39 µM | 3.14 µM | 4.82 µM | 1.75 µM | 4.96 µM | 1.57 µM
O=C1CCC(=O)C12CCc1cccc(O)c12 | > 100 µM | > 100 µM | > 100 µM | > 100 µM | – | > 100 µM | – | – | > 100 µM | – | – | > 100 µM | – | – | – | – | – | – | – | –
Cn1cnc([N+](=O)[O-])c1Sc1nnc(C(F)(F)F)n1C | 28.8 µM | > 100 µM | 30.5 µM | 37.2 µM | 48.4 µM | 38.1 µM | 65.7 µM | 32.9 µM | – | – | – | – | – | – | – | – | – | – | – | –
Clc1ccc(Nc2nc3ccccc3c3occc23)cc1 | 13 µM | 14.9 µM | 14.3 µM | 16.2 µM | – | 14.4 µM | 17.5 µM | 19.2 µM | 34.4 µM | 6 µM | 24.4 µM | > 50 µM | 8.02 µM | 8.66 µM | – | 6.39 µM | 10.4 µM | 11.2 µM | 9.62 µM | 5.49 µM
O=C1CCC2CCOc3ccc(O)c1c32 (configuration not stated) | > 100 µM | > 100 µM | – | > 100 µM | > 100 µM | > 100 µM | > 100 µM | > 100 µM | > 100 µM | – | – | > 100 µM | – | – | – | – | – | – | – | –
CC1=N/C(=C\c2ccc([N+](=O)[O-])cc2)C(=O)O1 | > 100 µM | > 100 µM | – | > 100 µM | – | > 100 µM | > 100 µM | > 100 µM | > 100 µM | – | – | > 100 µM | – | – | – | – | – | – | – | –
CCOC(=O)C1(C(=O)OCC)CC=C(C)CC12C(=O)Nc1ccccc12 (configuration not stated) | > 100 µM | > 100 µM | > 100 µM | > 100 µM | > 100 µM | > 100 µM | > 100 µM | – | > 100 µM | – | – | > 100 µM | – | – | – | – | – | – | – | –
CCCCC#Cc1cccc(=O)o1 | 5.3 µM | > 100 µM | – | – | > 100 µM | > 100 µM | > 100 µM | > 100 µM | – | 2.23 µM | 1.86 µM | > 100 µM | 8.98 µM | – | 20.3 µM | 18.3 µM | 30.9 µM | – | > 100 µM | –
CN(C)CCNC(=O)c1cccc2c1nc(-c1ccccn1)c1ccccc12 | 24.8 µM | 30 µM | – | 34.5 µM | 51.7 µM | 29.9 µM | 30.4 µM | 30.4 µM | 30.6 µM | – | – | 34.8 µM | – | – | – | – | – | – | – | –
C=CCNC(=S)OCCCCCCCCCC | – | 37.8 µM | 26.9 µM | 30.8 µM | 37.4 µM | 44.9 µM | 34 µM | 34.6 µM | 29.4 µM | – | – | 53.5 µM | – | – | – | – | – | – | – | –
COc1ccc(-c2[nH]ncc2-c2cc(OC)c(OC)c(OC)c2)cc1 | < 0.01 µM | 26.7 µM | 44.4 µM | 6.11 µM | 28.8 µM | 33.6 µM | < 0.0128 µM | > 50.3 µM | > 80.6 µM | < 0.01 µM | – | – | 0.0103 µM | < 0.01 µM | < 0.0163 µM | < 0.0185 µM | – | < 0.01 µM | < 0.01 µM | < 0.01 µM
CC12CCC(O)CC1CCC1C2CCC2(C)C(C3=CC(=O)OC3)CCC12 (configuration not stated) | > 100 µM | > 64.6 µM | > 100 µM | 10.1 µM | – | > 100 µM | > 100 µM | > 100 µM | > 100 µM | > 100 µM | > 100 µM | > 100 µM | 5.81 µM | 2.62 µM | – | 28.2 µM | > 100 µM | > 100 µM | 21.9 µM | 0.3 µM
COP1(=S)OCC2CCC[C@@H]2O1 (some centres not stated) | > 100 µM | > 100 µM | – | > 100 µM | > 100 µM | > 100 µM | > 100 µM | > 100 µM | > 100 µM | – | – | > 100 µM | – | – | – | – | – | – | – | –
CCCCCCCCCC(=O)N[C@H]1CCc2cc(OC)c(OC)c(OC)c2-c2ccc(SC)c(=O)cc21 | 0.0123 µM | – | – | 0.0618 µM | > 100 µM | – | 0.0491 µM | 13.9 µM | 0.0901 µM | – | – | 0.223 µM | – | – | – | – | – | – | – | –
COc1ccc2c(c1)C(=O)c1c-2n(CCCCl)c(=O)c2cc(N(C)C)ccc12 | > 100 µM | > 100 µM | > 100 µM | 84.2 µM | – | > 100 µM | 47.4 µM | > 100 µM | > 100 µM | > 100 µM | > 100 µM | > 100 µM | > 100 µM | 23.1 µM | – | > 100 µM | 43 µM | > 100 µM | 12.4 µM | 99.1 µM
